Measured values: ChEMBL document CHEMBL1201862, “PubChem BioAssay data set” (2004)
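Method: 48-hour compound exposure of cells in 96-well plates, five concentrations, linear interpolation of endpoints. Abbreviation: GI50, concentration required for 50% inhibition of growth.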 Active and inactive are the calls of the source. No stated cut-off is given here; in the data, active = GI50 up to about 1.1 µM and inactive = higher.

How the values were obtained:
Assay in all cases: NCI tumour cell line growth inhibition, 48 h
NCI-H460 = system: NCI-H460
HCT-116 = system: HCT-116
HOP-62 = system: HOP-62
786-0 = system: 786-0
A498 = system: A498
MDA-MB-231 = system: MDA-MB-231
OVCAR-3 = system: OVCAR-3
OVCAR-8 = system: OVCAR-8
MDA-MB-435 = system: MDA-MB-435
HL-60 = system: HL-60
NCI/ADR-RES = system: NCI/ADR-RES
ACHN = system: ACHN
KM12 = system: KM12
SK-OV-3 = system: SK-OV-3
IGROV-1 = system: IGROV-1
HCT-15 = system: HCT-15
HT-29 = system: HT-29
RPMI-8226 = system: RPMI-8226
A549 = system: A549
Hs-578T = system: Hs-578T
K562 = system: K562
MDA-N = system: MDA-N
PC-3 = system: PC-3
BT-549 = system: BT-549
NCI-H226 = system: NCI-H226
UACC-62 = system: UACC-62
SR = system: SR
CCRF-CEM = system: CCRF-CEM
SF-268 = system: SF-268
U-251 = system: U-251
SNB-19 = system: SNB-19
CAKI-1 = system: CAKI-1
HOP-92 = system: HOP-92
OVCAR-5 = system: OVCAR-5
MOLT-4 = system: MOLT-4
SF-295 = system: SF-295
EKVX = system: EKVX
SF-539 = system: SF-539
RXF 393 = system: RXF 393
SK-MEL-2 = system: SK-MEL-2
M14 = system: M14
OVCAR-4 = system: OVCAR-4
SK-MEL-5 = system: SK-MEL-5
MCF7 = system: MCF7
T47D = system: T47D
SNB-75 = system: SNB-75
TK-10 = system: TK-10
UACC-257 = system: UACC-257
COLO 205 = system: COLO 205
NCI-H522 = system: NCI-H522
SW-620 = system: SW-620
UO-31 = system: UO-31
NCI-H23 = system: NCI-H23
Malme-3M = system: Malme-3M
LOX IMVI = system: LOX IMVI
SK-MEL-28 = system: SK-MEL-28
HCC 2998 = system: HCC 2998
SN12C = system: SN12C
DU-145 = system: DU-145

CN1CCOC1(C)CO (stereo not given)
GI50 (NCI-H460): > 100 µM (inactive)
GI50 (HCT-116): > 100 µM (inactive)
GI50 (HOP-62): > 100 µM (inactive)
GI50 (786-0): > 100 µM (inactive)
GI50 (A498): > 100 µM (inactive)
GI50 (MDA-MB-231): > 100 µM (inactive)
GI50 (OVCAR-3): > 100 µM (inactive)
GI50 (OVCAR-8): > 100 µM (inactive)
GI50 (MDA-MB-435): > 100 µM (inactive)
GI50 (HL-60): 50.8 µM (inactive)
GI50 (NCI/ADR-RES): > 100 µM (inactive)
GI50 (ACHN): > 100 µM (inactive)
GI50 (KM12): > 100 µM (inactive)
GI50 (SK-OV-3): > 100 µM (inactive)
GI50 (IGROV-1): > 100 µM (inactive)
GI50 (HCT-15): > 100 µM
GI50 (HT-29): > 100 µM (inactive)
GI50 (RPMI-8226): > 100 µM (inactive)
GI50 (A549): > 100 µM (inactive)
GI50 (Hs-578T): > 100 µM (inactive)
GI50 (K562): > 100 µM (inactive)
GI50 (MDA-N): > 100 µM (inactive)
GI50 (PC-3): > 100 µM (inactive)
GI50 (BT-549): > 100 µM (inactive)
GI50 (NCI-H226): > 100 µM (inactive)
GI50 (UACC-62): > 100 µM (inactive)
GI50 (SR): > 100 µM (inactive)
GI50 (CCRF-CEM): > 100 µM (inactive)
GI50 (SF-268): > 100 µM (inactive)
GI50 (U-251): > 100 µM (inactive)
GI50 (SNB-19): > 100 µM (inactive)
GI50 (CAKI-1): > 100 µM (inactive)
GI50 (HOP-92): > 100 µM (inactive)
GI50 (OVCAR-5): > 100 µM (inactive)
GI50 (MOLT-4): > 100 µM (inactive)
GI50 (SF-295): > 100 µM (inactive)
GI50 (EKVX): > 100 µM (inactive)
GI50 (SF-539): > 100 µM (inactive)
GI50 (RXF 393): > 100 µM (inactive)
GI50 (SK-MEL-2): > 100 µM (inactive)
GI50 (M14): > 100 µM (inactive)
GI50 (OVCAR-4): > 100 µM (inactive)
GI50 (SK-MEL-5): > 100 µM (inactive)
GI50 (MCF7): > 100 µM (inactive)
GI50 (T47D): > 100 µM (inactive)
GI50 (SNB-75): 28.6 µM (inactive)
GI50 (TK-10): > 100 µM (inactive)
GI50 (UACC-257): > 100 µM (inactive)
GI50 (COLO 205): > 100 µM (inactive)
GI50 (NCI-H522): > 100 µM (inactive)
GI50 (SW-620): > 100 µM (inactive)
GI50 (UO-31): > 100 µM (inactive)
GI50 (NCI-H23): > 100 µM (inactive)
GI50 (Malme-3M): > 100 µM (inactive)
GI50 (LOX IMVI): > 100 µM (inactive)

C[n+]1cn(-c2nc3ccccc3nc2[N-]S(=O)(=O)c2ccccc2)c2ccccc21
GI50 (NCI-H460): > 100 µM (inactive)
GI50 (HCT-116): > 100 µM (inactive)
GI50 (HOP-62): > 100 µM (inactive)
GI50 (786-0): > 100 µM (inactive)
GI50 (MDA-MB-231): > 100 µM (inactive)
GI50 (OVCAR-3): > 100 µM (inactive)
GI50 (OVCAR-8): > 100 µM (inactive)
GI50 (MDA-MB-435): > 100 µM (inactive)
GI50 (HL-60): > 100 µM (inactive)
GI50 (NCI/ADR-RES): > 100 µM (inactive)
GI50 (ACHN): > 100 µM (inactive)
GI50 (KM12): > 100 µM (inactive)
GI50 (SK-OV-3): > 100 µM (inactive)
GI50 (IGROV-1): > 100 µM (inactive)
GI50 (HCT-15): > 100 µM
GI50 (HT-29): > 100 µM (inactive)
GI50 (RPMI-8226): > 100 µM (inactive)
GI50 (A549): > 100 µM (inactive)
GI50 (SK-MEL-28): > 100 µM (inactive)
GI50 (Hs-578T): > 100 µM (inactive)
GI50 (HCC 2998): > 100 µM (inactive)
GI50 (K562): > 100 µM (inactive)
GI50 (MDA-N): > 100 µM (inactive)
GI50 (PC-3): > 100 µM (inactive)
GI50 (BT-549): > 100 µM (inactive)
GI50 (NCI-H226): > 100 µM (inactive)
GI50 (UACC-62): > 100 µM (inactive)
GI50 (SR): > 100 µM (inactive)
GI50 (CCRF-CEM): > 100 µM (inactive)
GI50 (SF-268): > 100 µM (inactive)
GI50 (U-251): > 100 µM (inactive)
GI50 (SNB-19): > 100 µM (inactive)
GI50 (CAKI-1): > 100 µM (inactive)
GI50 (HOP-92): > 100 µM (inactive)
GI50 (OVCAR-5): > 100 µM (inactive)
GI50 (MOLT-4): > 100 µM (inactive)
GI50 (SF-295): > 100 µM (inactive)
GI50 (EKVX): > 100 µM (inactive)
GI50 (SF-539): > 100 µM (inactive)
GI50 (RXF 393): 62.2 µM (inactive)
GI50 (SN12C): > 100 µM (inactive)
GI50 (SK-MEL-2): > 100 µM (inactive)
GI50 (M14): > 100 µM (inactive)
GI50 (OVCAR-4): > 100 µM (inactive)
GI50 (SK-MEL-5): > 100 µM (inactive)
GI50 (MCF7): > 100 µM (inactive)
GI50 (T47D): > 100 µM (inactive)
GI50 (SNB-75): > 100 µM (inactive)
GI50 (TK-10): > 100 µM (inactive)
GI50 (UACC-257): > 100 µM (inactive)
GI50 (COLO 205): > 100 µM (inactive)
GI50 (NCI-H522): 0.222 µM (active)
GI50 (SW-620): > 100 µM (inactive)
GI50 (UO-31): 80.7 µM (inactive)
GI50 (NCI-H23): > 100 µM (inactive)
GI50 (Malme-3M): > 100 µM (inactive)
GI50 (LOX IMVI): > 100 µM (inactive)

N#Cc1cnc(-n2[nH]c3c(c2=O)CCCC3)[nH]c1=O
GI50 (NCI-H460): 36.5 µM (inactive)
GI50 (HCT-116): 38 µM (inactive)
GI50 (786-0): 49.2 µM (inactive)
GI50 (A498): 59 µM (inactive)
GI50 (MDA-MB-231): 39.9 µM (inactive)
GI50 (MDA-MB-435): 54.5 µM (inactive)
GI50 (HL-60): 34.8 µM (inactive)
GI50 (ACHN): 47.2 µM (inactive)
GI50 (KM12): 21.8 µM (inactive)
GI50 (SK-OV-3): 75.3 µM (inactive)
GI50 (IGROV-1): > 100 µM (inactive)
GI50 (HCT-15): 41.1 µM
GI50 (HT-29): 41.2 µM (inactive)
GI50 (RPMI-8226): 88.3 µM (inactive)
GI50 (A549): 38.5 µM (inactive)
GI50 (SK-MEL-28): 55.2 µM (inactive)
GI50 (Hs-578T): > 100 µM (inactive)
GI50 (K562): 69.8 µM (inactive)
GI50 (MDA-N): > 100 µM (inactive)
GI50 (PC-3): 59.4 µM (inactive)
GI50 (BT-549): 73.5 µM (inactive)
GI50 (NCI-H226): 47.8 µM (inactive)
GI50 (UACC-62): 38.6 µM (inactive)
GI50 (SR): 23.8 µM (inactive)
GI50 (CCRF-CEM): 31.9 µM (inactive)
GI50 (SF-268): 46 µM (inactive)
GI50 (U-251): 58.6 µM (inactive)
GI50 (SNB-19): > 100 µM (inactive)
GI50 (CAKI-1): 39.2 µM (inactive)
GI50 (HOP-92): 35.2 µM (inactive)
GI50 (DU-145): 64.1 µM (inactive)
GI50 (OVCAR-5): 74.6 µM (inactive)
GI50 (MOLT-4): 44.5 µM (inactive)
GI50 (SF-295): 40.3 µM (inactive)
GI50 (EKVX): 37.6 µM (inactive)
GI50 (SF-539): 43.9 µM (inactive)
GI50 (RXF 393): > 100 µM (inactive)
GI50 (SN12C): 44.2 µM (inactive)
GI50 (SK-MEL-2): 71.3 µM (inactive)
GI50 (M14): 38.1 µM (inactive)
GI50 (OVCAR-4): 83.9 µM (inactive)
GI50 (SK-MEL-5): 48.1 µM (inactive)
GI50 (MCF7): 39.8 µM (inactive)
GI50 (T47D): > 100 µM (inactive)
GI50 (SNB-75): 0.264 µM (active)
GI50 (TK-10): 51.5 µM (inactive)
GI50 (UACC-257): 55 µM (inactive)
GI50 (COLO 205): 38.5 µM (inactive)
GI50 (NCI-H522): 57.3 µM (inactive)
GI50 (SW-620): 50 µM (inactive)
GI50 (UO-31): 38.5 µM (inactive)
GI50 (NCI-H23): 54.3 µM (inactive)
GI50 (Malme-3M): 50 µM (inactive)
